Data as given in the NIST ThermoML archive (doi:10.1016/j.tca.2004.12.026).
Numbers after ± are expanded uncertainties.

Columns and labels:
[1] = 298.15 K; 101.33 kPa; Liquid; Vibrating tube method
[2] = excess molar enthalpy (molar enthalpy of mixing); xn = mol fraction of the nth substance listed; details: 298.15 K, 101.33 kPa, Liquid, Flow calorimetry

COC(C)(C)C [2-methoxy-2-methylpropane]
mass density [1]: 735.69 ± 0.4 kg/m3

CCC(C)CC [3-methylpentane]
mass density [1]: 660.3 ± 0.41 kg/m3

CCC(C)CC [3-methylpentane] + COC(C)(C)C
excess molar enthalpy ([2]; x2 = 0.0499): 0.0572 ± 0.0016 kJ/mol | excess molar enthalpy ([2]; x2 = 0.0999): 0.108 ± 0.0021 kJ/mol | excess molar enthalpy ([2]; x2 = 0.1501): 0.16 ± 0.0026 kJ/mol | excess molar enthalpy ([2]; x2 = 0.2): 0.202 ± 0.003 kJ/mol | excess molar enthalpy ([2]; x2 = 0.2495): 0.234 ± 0.0033 kJ/mol | excess molar enthalpy ([2]; x2 = 0.3004): 0.263 ± 0.0036 kJ/mol | excess molar enthalpy ([2]; x2 = 0.3502): 0.286 ± 0.0039 kJ/mol | excess molar enthalpy ([2]; x2 = 0.3999): 0.301 ± 0.004 kJ/mol | excess molar enthalpy ([2]; x2 = 0.4505): 0.312 ± 0.0041 kJ/mol | excess molar enthalpy ([2]; x2 = 0.4997): 0.315 ± 0.0042 kJ/mol | excess molar enthalpy ([2]; x2 = 0.55): 0.31 ± 0.0041 kJ/mol | excess molar enthalpy ([2]; x2 = 0.5996): 0.3 ± 0.004 kJ/mol | excess molar enthalpy ([2]; x2 = 0.6502): 0.286 ± 0.0039 kJ/mol | excess molar enthalpy ([2]; x2 = 0.7003): 0.264 ± 0.0036 kJ/mol | excess molar enthalpy ([2]; x2 = 0.75): 0.235 ± 0.0034 kJ/mol | excess molar enthalpy ([2]; x2 = 0.7999): 0.199 ± 0.003 kJ/mol | excess molar enthalpy ([2]; x2 = 0.8501): 0.158 ± 0.0026 kJ/mol | excess molar enthalpy ([2]; x2 = 0.8999): 0.11 ± 0.0021 kJ/mol | excess molar enthalpy ([2]; x2 = 0.95): 0.0537 ± 0.0015 kJ/mol

CCCCCCCCCC [decane]
mass density [1]: 726.31 ± 0.42 kg/m3

CCCCCCCCCCCC [dodecane]
mass density [1]: 745.38 ± 0.42 kg/m3
